The text below walks through data of ChEMBL document CHEMBL1125467, “Structure-activity relationship in the gastric cytoprotective effect of several sesquiterpene lactones” (1992).

One assay deals with Rattus norvegicus. As to the kind of experiment: Compound was evaluated for the cytoprotective effect at an oral dose of 40 mg/kg in rat. It is filed as functional.
`C[C@@H]1C[C@H]2OC(=O)[C@H](C)[C@H]2[C@H](O)[C@]2(C)C(=O)CCC12` (some centres not stated) showed a Cytoprotective effect of 3.7. On the same count and under the same terms, with `CC1C(=O)O[C@@H]2[C@H]1CC[C@H](C)[C@@]1(O)CCC(=O)[C@@]21C` (some centres not stated) the figure was 4.5.

The next assay has as its system Rattus norvegicus. As to the kind of experiment: Cytoprotective effect at an oral dose of 40 mg/kg. The assay is classed as functional. Also on record: unit not given here.
`C=C1C(=O)OC2/C=C(\C)C[C@@H]3C=C(CC(OC(=O)C(C)CC)[C@@H]12)C(=O)O3` (some centres not stated) registered a Cytoprotective effect of 4. On the same count and under the same terms, with `C=C1C(=O)O[C@@H]2C[C@@H](C)C3=CCC(=O)[C@@]3(C)[C@@H](OC(C)=O)[C@H]12` the figure was 0.9. On the same count and under the same terms, then `CC1C(=O)O[C@@H]2[C@H]1CC[C@H](C)[C@@]1(O)C=CC(=O)[C@@]21C` (some centres not stated), with 4. Same read-out and setting: then `C[C@@H]1C[C@H]2OC(=O)[C@H](C)[C@H]2[C@H](O)[C@]2(C)C(=O)C=CC12` (some centres not stated), with 0.66; and `C=C1C(=O)O[C@@H]2C[C@@H](C)C3C=CC(=O)[C@@]3(C)[C@@H](OC(=O)CNC(=O)C(F)(F)F)[C@H]12` (some centres not stated), with 0.95.

As for `C=C1C(=O)O[C@@H]2C[C@@H](C)C3C=CC(=O)[C@@]3(C)[C@@H](OC(C)=O)[C@H]12` (some centres not stated), the Cytoprotective effect turned out to be 1. Still for that read-out and setting: with `C=C1C(=O)O[C@@H]2C[C@@H](C)C3CCC(=O)[C@@]3(C)[C@@H](O)[C@H]12` (some centres not stated) the figure was 1; with `CC1=CC(=O)C2C(C)CC[C@H]3[C@H](C)C(=O)O[C@@H]3[C@]12C` (some centres not stated), 3.5. With `C=C1C(=O)O[C@@H]2C[C@@H](C)C3C=CC(=O)[C@@]3(C)[C@@H](OC(=O)CN)[C@H]12` (some centres not stated), the Cytoprotective effect amounted to 0.85.

Compound `C=C1C(=O)O[C@@H]2[C@H]3C(C)=CC(=O)C3=C(C)CC[C@@H]12` [DEHYDROLEUCODIN] registered a Cytoprotective effect of 0.25. On the same count and under the same terms, with `C=C1C(=O)O[C@@H]2C[C@@H](C)C3CCC(C)=C3[C@@H](O)[C@H]12` (some centres not stated) [GUAIANOLIDE] the figure was 0.7. On the same count and under the same terms, then `C=C1C(=O)O[C@@H]2C[C@@H](C)[C@@H]3C=CC(=O)[C@@]3(C)[C@@H](O)[C@H]12` [HELENALIN], with 0.33; and `C=C1C(=O)O[C@@H]2[C@H]1CC[C@H](C)[C@@]1(O)C=CC(=O)[C@@]21C` [HYMENIN], with 0.25. The same measure, in the same setting: then `C=C1C(=O)O[C@H]2[C@H]1CCC(C)=C1C[C@H]3O[C@@]3(C)[C@@H]12` [LUDARTIN], with 0.5; and `C=C1C(=O)O[C@H]2C[C@@H](C)[C@@H]3C=CC(=O)[C@@]3(C)[C@H](O)[C@H]12` [MEXICANIN I], with 0.25.
